In US7223777B2, “Compounds for the management of aging-related and diabetic vascular complications, process for their preparation, therapeutic and cosmetic uses thereof” (Torrent Pharmaceuticals Ltd., priority 2001, dated 2007):

Experiments:
[1] = target: T1, AGE-BSA (Bos taurus, UniProt P02769); experiment: In-vitro screening for AGE-breaking activity (AGE-BSA incubated with compound; ELISA / gel permeation chromatography); format: biochemical, bovine; conditions: 37° C., 24 hours
T1 construct: Bovine serum albumin (fraction V) (BSA); from tissue; host or cells: bovine serum (fraction V); own knowledge: fraction V is the albumin fraction of plasma/serum
Procedure: Fluorescence was used as the criteria to monitor the increased AGE formation.
160 mg/ml of protein, bovine serum albumin, BSA and 1.6M glucose sugar were dissolved in phosphate buffered saline, PBS. Sodium azide was added at 0.02% concentration as a preservative. The solution was filtered asceptically through a […] filter and kept for aging at 37° C. for 16 weeks. After 16 weeks the solution was dialyzed against PBS, aliquoted and stored at −20° C.
To determine the AGE breaking activity, 10 μg/ml of the 16 weeks AGE-BSA was incubated with different concentrations of the test compounds at 37° C. for 24 hours and AGE breaking activity of the test compounds by ELISA was determined.
• 1. Different concentrations of 16 weeks AGE-BSA were coated on a microtiter plate as standard. Each concentration is coated in triplicates. • 2. The test samples were coated on microtiter plate at a concentration of 5 ng. to 20 ng per well in triplicates. • 3. The plate was incubated at 37° C. for one hour. • 4. After incubation the plate was washed with PBST (PBS with 0.05% Tween 20). • 5. Blocking with 5% skimmed milk in PBS at 37° C. for one hour was done. • 6. The plate was washed with PBST. • 7. Primary antibody against AGE-BSA was added and the plate is incubated at 37° C. for one hour. • 8. The plate was washed with PBST. • 9. Secondary antibody anti rabbit HRPO (Horse-Radish Per Oxidase) conjugate was added and the plate is incubated at 37° C. for one hour. • 10. The plate was washed with PBST. • 11. Colour development with OPD (orthophenylenediamine dihydrochloride) and hydrogen peroxide was done. • 12. OD (optical density) at (450 nm reading –620 nm reading) was measured after incubation at 37° C. for 15 minutes with Microplate ELISA Reader.
The breaker activity of the compounds were determined by the following formula:
[formula] OD450-620Control=Absorbance of 20 ng AGE-BSA after incubation at 37° C. for 24 hours without test compound. OD450-620Test=Absorbance of 20 ng AGE-BSA after incubation at 37° C. for 24 hours with required concentration of test compound.
Gel Permeation Chromatography based method was used to determine AGE breaking activities of the compounds.
Separation by Gel Permeation Chromatography (GPC) depends on differences in the size, more precisely the hydrodynamic volume, of the proteins in a sample. […] The pores of a column particle are differentially accessible to smaller particles, depending on their size. This volume of the column is called (V1). The total accessible volume (Vt) is the sum of the volume outside the particles (V0) and the volume accessible inside the particles (V1): Vt=V0+Vi Therefore, in a typical Gel Permeation Chromatography (GPC) run, high molecular weight molecules elute at a lower retention time whereas lower molecular weight molecules are retained for longer time. For the purpose of quantification, the area under the curve for the respective molecule is recorded. The same principle has been applied in the in vitro screening of the molecules of instant invention. Highly cross-linked Advanced Glycosylated Endproducts (AGE) were prepared in vitro by incubating Bovine Serum Albumin (BSA) with glucose for a period of 16 weeks. […] The reduction in the area of AGE-BSA incubated in the presence of AGE breaker as compared to that of control AGE BSA (incubated in absence of AGE breaker) gives an estimate of the AGE breaker activity of the drug. In order to check the non-specific activity of the molecule, a similar experiment was repeated with BSA as well. Methodology:
A known concentration of 16-week AGE-BSA was incubated with and without a predetermined concentration of the drug at 37° C. for 24 hours in clean transparent glass test tubes. The solution without drug served as the control and the solution containing the drug was treated as the test sample.
Gel permeation chromatography was performed on equal volumes of control AGE-BSA preparation and solution of AGE-BSA treated with drug. […]

[2] = system: Maillard reaction in-vitro (BSA, ribose); experiment: Test for AGE inhibiting activity (Maillard reaction in-vitro, BSA + ribose, fluorescence); format: biochemical, bovine; conditions: 37° C., 7 days
Procedure: The following method was used to determine the inhibitory effect of the test compounds on Maillard reaction in-vitro. This method is adopted from U.S. Pat. No. 5,514,676 and European Patent No. 0 339 496 A2.
A solution of Bovine Serum Albumin (BSA), ribose and test compound was prepared in Phosphate Buffer Saline (PBS, pH 7.4) so as to have final concentration of BSA and ribose at 10 mg/ml and 500 mM respectively. Addition of compound was done in aseptic conditions. Sodium azide (0.02%) was also added in this solution in order to prevent microbial growth. A separate tube containing BSA, ribose and sodium azide in the same concentration and buffer as above, but without any test compound, was also incubated as positive control. After incubation at 37° C. for 7 days, 40 micro liter sample from each tube was removed and diluted with PBS to have final concentration of BSA at 1 mg/ml. The fluorescence of all the samples was measured at Excitation Maximum of […] and the Emission Maximum of […] using f-MAX Fluorimeter (Molecular Device, USA). In order to study the effect of test compound on fluorescence, freshly prepared compound solution was mixed with previously incubated positive control (i.e. BSA+ribose), so as to achieve same concentration of all the components as that of test samples.
The percent inhibition of test compound was measured as follows:
[formula] Where F3=Fluorescence of BSA+ribose+compound, F4 is fluorescence of incubated (BSA+ribose)+freshly added test compound.

[3] = Free radical scavenging activity on ABTS radical cation; format: biochemical
Procedure: This method measures the relative ability of free radical scavenging substances to scavenge the ABTS.^+ i.e. 2,2-Azino-bis-(3-ethyl benzo thiazoline-6-sulfonate) radical cation as compared to a standard amount of standard or free radical scavengers antioxidants. Incubation of ABTS with Peroxidase (metmyoglobin) and hydrogen peroxide results in the production of radical cation ABTS.^+. This species is blue-green in colour and can be detected at 730 nm. Antioxidants or free radical scavengers in the added sample that causes suppression of the color to a degree that is proportional to their concentration.
Preparation of Buffer Solutions: • a. Phosphate Citrate Buffer (pH 5.0): 48.5 ml of 0.1M citric acid with sufficient 0.2M disodium hydrogen phosphate to produce 100 ml. • b. Phosphate Buffer Saline (PBS): Dissolve 40.0 g of NaCl, 1.0 g of KCl, 1.0 g of KH2PO4 and 3.05 g of Na2HPO4 in 1 liter milli-Q water. Dilute 200 ml of above solution to 1 liter with milli-Q water (pH 7.4–7.6).
Preparation of ABTS Stock Solution (2 mM): • 1 tablet (10 mg) was dissolved in phosphate citrate buffer (pH 5.0) to give a 2 mM solution.
Preparation of Horse Radish Peroxidase Working Solution: • 0.1 mg was dissolved in 10 ml of phosphate buffer saline, 1 ml of this solution was diluted to 100 ml with PBS.
Preparation of Hydrogen Peroxide (1.08 mM) Solution: • 12 μl of Hydrogen Peroxide (30% w/v) was diluted to 100 ml with PBS.
Preparation of Drug Solutions: • 0.1 mM of stock solution of the drug was prepared which was serially diluted in PBS to get 0.05 mM, 0.025 mM and 0.0125 mM solutions.
Preparation of ABTS Radical Stock Solution: • To 2 ml of ABTS stock solution, 1 ml of horseradish Peroxidase working solution was added. • As soon as 2 ml of Hydrogen peroxide solution was added to the above solution, blue-green colour of the ABTS radicals appeared. This solution was incubated at 30° C. for 30 min in order to ensure the completion reaction. Make up the volume to 10 ml with PBS.
Preparation of Control Solution: • 900 μl of ABTS radical stock solution were added to an eppendorf tube. To it were added 100 μl of PBS solution.
Preparation of Test Solution: • 900 μl of ABTS radical stock solutions were added to different eppendorf tubes. To it were added 100 μl of various concentrations of drug solution.
Measurement of Absorbance (O.D): • The absorbance of control and test samples was recorded immediately at 730 nm taking PBS as blank.
Calculation: • The percent antioxidant activity was calculated according to the formula: % Antioxidant activity=100−[O.D of test sample/O.D of control×100]

T1 sequence (P02769 25-607): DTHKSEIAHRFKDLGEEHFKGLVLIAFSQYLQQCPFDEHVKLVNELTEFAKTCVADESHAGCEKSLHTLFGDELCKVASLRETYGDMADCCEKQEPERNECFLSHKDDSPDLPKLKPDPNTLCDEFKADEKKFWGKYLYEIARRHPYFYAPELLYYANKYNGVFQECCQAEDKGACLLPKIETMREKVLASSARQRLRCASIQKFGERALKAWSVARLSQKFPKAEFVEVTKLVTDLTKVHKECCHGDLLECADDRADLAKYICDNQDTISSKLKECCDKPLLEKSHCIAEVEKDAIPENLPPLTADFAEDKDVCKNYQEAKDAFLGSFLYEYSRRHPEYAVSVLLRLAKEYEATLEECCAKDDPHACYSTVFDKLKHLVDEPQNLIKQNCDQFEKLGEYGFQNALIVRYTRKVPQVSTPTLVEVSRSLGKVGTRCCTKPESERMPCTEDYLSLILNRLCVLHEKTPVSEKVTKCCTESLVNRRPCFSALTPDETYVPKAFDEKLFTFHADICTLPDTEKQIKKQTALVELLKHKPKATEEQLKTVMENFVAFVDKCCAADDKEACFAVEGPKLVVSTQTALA

Compound	% Breakage ([1]; 10 mM compound) [%]	% Inhibition (Day 7) ([2]; 10 mM compound) [%]	Relative Free Radical Scavenging Activity (%) on ABTS ([3]; 12.5 μM) [%]	Relative Free Radical Scavenging Activity (%) on ABTS ([3]; 25.0 μM) [%]	Relative Free Radical Scavenging Activity (%) on ABTS ([3]; 50.0 μM) [%]	Relative Free Radical Scavenging Activity (%) on ABTS ([3]; 100.0 μM) [%]	% Inhibition (Day 7) ([2]; 2.5 mM compound) [%]	% Breakage ([1]; 5 mM compound) [%]	% Inhibition (Day 7) ([2]; 1.25 mM compound) [%]	% Inhibition (Day 7) ([2]; 5 mM compound) [%]
1-(2-Thien-2′-yl-2-oxoethyl)-3-[(1-cyclohexyl-3-(3,5-dimethylpyrazol-1-yl)methyl)pyrazol-5-yl]pyridinium chloride [Compound 35]	66.66	73.8	28.27	39.78	58.34	74.36	–	–	–	–
Cc1cc(C)n(Cc2cc(-c3ccc[n+](CC(=O)c4cccs4)c3)n(-c3ccccn3)n2)n1.[Br-] [Compound 6, 1-(2-Thien-2′-yl-2-oxoethyl)-3-[3{(3,5-dimethylpyrazol-1-yl)methyl-1-(2-pyridyl)}pyrazol-5-yl]pyridinium bromide]	–	66	21.99	40.56	61.68	81.04	–	–	–	–
O=C(C[n+]1cccc(-c2cc(-c3ccc[n+](CC(=O)c4cccs4)c3)[nH]n2)c1)c1cccs1.[Br-].[Br-] [Compound 10, 3,5-Bis-[1-(2-thien-2′-yl-2-oxoethyl)-pyridinium-3-yl]-pyrazole dibromide]	–	–	41.01	72.97	85.75	87.04	75	–	–	–
O=C(C[n+]1cccc(-c2cc(Cc3ccccc3)nn2-c2ccccc2)c1)c1cccs1.[Cl-] [Compound 11, 1-(2-Thien-2′-yl-2-oxoethyl)-3-[(1-phenyl-3-phenylmethyl)pyrazol-5-yl]-pyridinium chloride]	–	–	26.78	45.74	70.61	86.46	–	76.84	32.9	–
Cc1cc(C)n(Cc2cc(-c3ccc[n+](CC(=O)c4cccs4)c3)n(-c3ccccc3)n2)n1.[Cl-] [Compound 13]	81.05	57	23.58	41.78	64.01	82.54	–	–	–	–
Cc1cc(C)n(Cc2cc(-c3ccc[n+](CC(=O)c4ccccc4)c3)[nH]n2)n1.[Cl-] [Compound 17, 1-(2-Phenyl-2-oxoethyl)-3-[(3-(3,5-dimethylpyrazol-1-yl)methyl)pyrazol-5-yl]-pyridinium chloride]	52.27	–	28.34	54.43	83.56	94.81	57.43	–	–	–
Cc1cc(C)n(Cc2cc(-c3ccc[n+](CC(=O)c4ccc(C)s4)c3)[nH]n2)n1.[Cl-] [Compound 18, 1-(2-(5-Methyl-2-thienyl)-2-oxoethyl)-3-[(3,-(3,5-dimethylpyrazol-1-yl)methyl)pyrazol-5-yl]pyridinium chloride]	–	–	28.65	53.8	84.41	95.32	–	52.97	–	79
O=C(C[n+]1cccc(-c2cc(COc3ccccc3)nn2-c2ccccc2)c1)c1cccs1.[Cl-] [Compound 29, 1-(2-Thien-2′-yl-2-oxoethyl)-3-[(1-phenyl-3-phenoxymethyl)pyrazol-5-yl]pyridinium chloride]	–	–	31.82	46.84	58.84	55.22	–	–	–	55.22
